# According to patent publication US20230255864A1, “NOVEL COMPOSITIONS COMBINING HEMP DERIVATIVES AND AT LEAST ONE PEPTIDE AND USE THEREOF” (FRANCE COSMEPHYL-LAB, priority 2020, published 2023):
# Values joined by “and” are separate entries in the source; they are usually repeats but may differ in a detail not shown here. Equal values may be shown once. Read-outs that look alike come from different tables or passages of the source.
# Assays:
# [1] = test system: RAW 267.4 murine macrophages; assay: Cell viability of murine macrophages (WST-1 mitochondrial respiration), in parallel with NO release; type: cell-based
# Method: (§1) MURINS RAW 267.4 Macrophage cell line (Sigma-Aldrich, No. P6110401, Lot. 091006), low number of passages (less than 50).
# (§2) Complete medium: DMEM with stabilized L-glutamine (Dulbecco's Minimum Essential Medium, PAN BIOTECH. Lot 974251) supplemented with Penicillin 100 IU/ml and streptomycin 100 μg/m1 (PAN BIOTECH, Lot 225614), and 10% inactivated calf serum (PAN BIOTECH, Lot P460518), pH 7.2, freshly prepared, stored for less than 3 weeks.
# (§3) Cannabidiol (CBD) is diluted in DMSO (10 mg/mL storage solution), and subjected to an ultrasonic bath for 20 minutes. The Neutrazen™ solution is diluted in PBS (Phosphate buffer saline, Sigma-Aldrich).
# (§4) RAW 267.4 murine macrophages were inoculated into 48-well tissue culture plates at a concentration of 1.10^5 cells/ml (200 μl/well) and incubated for 24 hours at 37° C. (5% CO2).
# (§5) At the end of the incubation period, the culture medium was replaced with 200 μl of medium containing the appropriate concentrations of the material to be tested, and the cells were incubated at 37° C. (5% CO2) for one hour.
# (§6) At the end of the incubation period, pro-inflammatory E. coli LPS was added to the cell cultures (1 μg/ml. Then the cells were incubated at 37° C. (5% CO2) for 24 hours.
# (§7) In parallel with the evaluation of the release of NO, the cell viability was measured to validate the tests. Vital Stain Reagent WST-1 was used to measure cellular mitochondrial respiration. For this, the culture medium was decanted and 100 μl of WST-1 reagent ( 1/10 dilution) were added to each well. After an incubation period of 30 min at 37° C. (5% CO2), the Optical Density (OD) of each well was read at a wavelength of 450 nm by an Infinite M200 Pro fluorescence-luminescence reader (TECAN). The results obtained for the wells treated with the test material were compared with those of the untreated control wells (DMSO, 100% viability) and converted into percentage values.
# (§8) Inhibition of NO release and inhibition of cell viability were expressed as a percentage relative to the negative controls: […]
# (§9) The concentrations of test material causing a 50% decrease in NO release (IC50 (NO release)) and a 50% decrease in cell viability (IC50 (cell viability)) respectively were calculated using TableCurve software Version 2.0.
# (§10) Analysis of the anti-inflammatory activity and of the cell viability of the cannabidiol/palmitoyl tripeptide-8 (Neutrazen™) association in a mixture by isobologram analysis. For each concentration of Neutrazen™ (0.01, 0.025, 0.05 and 0.1%), different concentrations of CBD are tested (0.01, 0.025, 0.05, 0.1, 0.25, 0.5, 1 and 2.5%) to determine both the production of NO and cell viability.
# (§11) The results obtained with the different mixtures of CBD and Neutrazen™ made it possible to calculate the pairs of concentrations corresponding to a 50% reduction in the production of NO and a 50% reduction in cell viability.
# [2] = as above; type: cell-based; settings: mouse, read-out: Cell viability (% as compared to the negative control)
# Method: as §1, §2, §3, §4, §5, §6, §7, §8, §9, §10, §11
compound,measurement,setting,value
C=C(C)[C@@H]1CCC(C)=C[C@H]1c1c(O)cc(CCCCC)cc1O [CBD],Cell viability (% as compared to the negative control),[1]; CBD 0.01 weight % in mixture with NeutraZen 0.01%,99.54% and 101.55%
same,Cell viability (% as compared to the negative control),[1]; CBD 0.01 weight % in mixture with NeutraZen 0.025%,101.86%
same,Cell viability (% as compared to the negative control),[1]; CBD 0.01 weight % in mixture with NeutraZen 0.05%,101.83% and 101.55%
same,Cell viability (% as compared to the negative control),[1]; CBD 0.01 weight % in mixture with NeutraZen 0.1%,100.00%
same,Cell viability (% as compared to the negative control),[1]; CBD 0.025 weight % in mixture with NeutraZen 0.01%,99.24% and 100.77%
same,Cell viability (% as compared to the negative control),[1]; CBD 0.025 weight % in mixture with NeutraZen 0.025%,100.76% and 101.08%
same,Cell viability (% as compared to the negative control),[1]; CBD 0.025 weight % in mixture with NeutraZen 0.05%,101.22% and 100.77%
same,Cell viability (% as compared to the negative control),[1]; CBD 0.025 weight % in mixture with NeutraZen 0.1%,100.15%
same,Cell viability (% as compared to the negative control),[1]; CBD 0.05 weight % in mixture with NeutraZen 0.01%,98.93% and 100.62%
same,Cell viability (% as compared to the negative control),[1]; CBD 0.05 weight % in mixture with NeutraZen 0.025%,96.18% and 100.31%
same,Cell viability (% as compared to the negative control),[1]; CBD 0.05 weight % in mixture with NeutraZen 0.05%,100.61% and 100.62%
same,Cell viability (% as compared to the negative control),[1]; CBD 0.05 weight % in mixture with NeutraZen 0.1%,99.54% and 100.00%
same,Cell viability (% as compared to the negative control),[1]; CBD 0.1 weight % in mixture with NeutraZen 0.01%,100.00% and 102.63%
same,Cell viability (% as compared to the negative control),[1]; CBD 0.1 weight % in mixture with NeutraZen 0.025%,96.34% and 99.23%
same,Cell viability (% as compared to the negative control),[1]; CBD 0.1 weight % in mixture with NeutraZen 0.05%,100.00%
same,Cell viability (% as compared to the negative control),[1]; CBD 0.1 weight % in mixture with NeutraZen 0.1%,99.54%
same,Cell viability (% as compared to the negative control),[1]; CBD 0.25 weight % in mixture with NeutraZen 0.01%,89.77% and 93.81%
same,Cell viability (% as compared to the negative control),[1]; CBD 0.25 weight % in mixture with NeutraZen 0.025%,88.09% and 89.16%
same,Cell viability (% as compared to the negative control),[1]; CBD 0.25 weight % in mixture with NeutraZen 0.05%,100.31%
same,Cell viability (% as compared to the negative control),[1]; CBD 0.25 weight % in mixture with NeutraZen 0.1%,97.40% and 98.61%
same,Cell viability (% as compared to the negative control),[1]; CBD 0.5 weight % in mixture with NeutraZen 0.01%,7.18% and 6.81%
same,Cell viability (% as compared to the negative control),[1]; CBD 0.5 weight % in mixture with NeutraZen 0.025%,7.33% and 7.43%
same,Cell viability (% as compared to the negative control),[1]; CBD 0.5 weight % in mixture with NeutraZen 0.05%,9.16% and 7.59%
same,Cell viability (% as compared to the negative control),[1]; CBD 0.5 weight % in mixture with NeutraZen 0.1%,9.47% and 8.20%
same,Cell viability (% as compared to the negative control),[1]; CBD 1 weight % in mixture with NeutraZen 0.01%,5.95% and 5.57%
same,Cell viability (% as compared to the negative control),[1]; CBD 1 weight % in mixture with NeutraZen 0.025%,5.34% and 4.95%
same,Cell viability (% as compared to the negative control),[1]; CBD 1 weight % in mixture with NeutraZen 0.05%,7.43%
same,Cell viability (% as compared to the negative control),[1]; CBD 1 weight % in mixture with NeutraZen 0.1%,8.40% and 7.59%
same,Cell viability (% as compared to the negative control),[1]; CBD 2.5 weight % in mixture with NeutraZen 0.01%,5.65% and 4.33%
same,Cell viability (% as compared to the negative control),[1]; CBD 2.5 weight % in mixture with NeutraZen 0.025%,4.49%
same,Cell viability (% as compared to the negative control),[1]; CBD 2.5 weight % in mixture with NeutraZen 0.05%,7.79% and 6.97%
same,Cell viability (% as compared to the negative control),[1]; CBD 2.5 weight % in mixture with NeutraZen 0.1%,7.63% and 6.35%
same,Cell viability (% as compared to the negative control),[1]; sample alone at 0.01 weight %,99.69% and 100.15%
same,Cell viability (% as compared to the negative control),[1]; sample alone at 0.025 weight %,99.85% and 99.23%
same,Cell viability (% as compared to the negative control),[1]; sample alone at 0.05 weight %,94.50% and 93.81%
same,Cell viability (% as compared to the negative control),[1]; sample alone at 0.1 weight %,51.15% and 55.11%
same,Cell viability (% as compared to the negative control),[1]; sample alone at 0.25 weight %,5.65% and 5.73%
same,Cell viability (% as compared to the negative control),[1]; sample alone at 0.5 weight %,3.97% and 3.25%
same,Cell viability (% as compared to the negative control),[1]; sample alone at 1 weight %,1.98% and 1.86%
same,Cell viability (% as compared to the negative control),[1]; sample alone at 2.5 weight %,1.98% and 2.14% and 0.46%
same,"viability at 25 h, 0.01 weight %","[2]; pH 7.2, CBD 0.01 weight % in mixture with NeutraZen 0.01%",98.6%
same,"viability at 25 h, 0.01 weight %","[2]; pH 7.2, CBD 0.01 weight % in mixture with NeutraZen 0.025%",102%
same,"viability at 25 h, 0.01 weight %","[2]; pH 7.2, CBD 0.01 weight % in mixture with NeutraZen 0.05%",98%
same,"viability at 25 h, 0.01 weight %","[2]; pH 7.2, CBD 0.01 weight % in mixture with NeutraZen 0.1%",101%
same,"viability at 25 h, 0.025 weight %","[2]; pH 7.2, CBD 0.025 weight % in mixture with NeutraZen 0.01%",99.7%
same,"viability at 25 h, 0.025 weight %","[2]; pH 7.2, CBD 0.025 weight % in mixture with NeutraZen 0.025%",104%
same,"viability at 25 h, 0.025 weight %","[2]; pH 7.2, CBD 0.025 weight % in mixture with NeutraZen 0.05%",99.1%
same,"viability at 25 h, 0.025 weight %","[2]; pH 7.2, CBD 0.025 weight % in mixture with NeutraZen 0.1%",99.7%
same,"viability at 25 h, 0.05 weight %","[2]; pH 7.2, CBD 0.05 weight % in mixture with NeutraZen 0.01%",97.7%
same,"viability at 25 h, 0.05 weight %","[2]; pH 7.2, CBD 0.05 weight % in mixture with NeutraZen 0.025%",96.2%
same,"viability at 25 h, 0.05 weight %","[2]; pH 7.2, CBD 0.05 weight % in mixture with NeutraZen 0.05%",101%
same,"viability at 25 h, 0.05 weight %","[2]; pH 7.2, CBD 0.05 weight % in mixture with NeutraZen 0.1%",103%
same,"viability at 25 h, 0.1 weight %","[2]; pH 7.2, CBD 0.1 weight % in mixture with NeutraZen 0.01%",102%
same,"viability at 25 h, 0.1 weight %","[2]; pH 7.2, CBD 0.1 weight % in mixture with NeutraZen 0.025%",100%
same,"viability at 25 h, 0.1 weight %","[2]; pH 7.2, CBD 0.1 weight % in mixture with NeutraZen 0.05%",100%
same,"viability at 25 h, 0.1 weight %","[2]; pH 7.2, CBD 0.1 weight % in mixture with NeutraZen 0.1%",97.1%
same,"viability at 25 h, 0.25 weight %","[2]; pH 7.2, CBD 0.25 weight % in mixture with NeutraZen 0.01%",92.2%
same,"viability at 25 h, 0.25 weight %","[2]; pH 7.2, CBD 0.25 weight % in mixture with NeutraZen 0.025%",88.5%
same,"viability at 25 h, 0.25 weight %","[2]; pH 7.2, CBD 0.25 weight % in mixture with NeutraZen 0.05%",98.6%
same,"viability at 25 h, 0.25 weight %","[2]; pH 7.2, CBD 0.25 weight % in mixture with NeutraZen 0.1%",95.7%
same,"viability at 25 h, 0.5 weight %","[2]; pH 7.2, CBD 0.5 weight % in mixture with NeutraZen 0.01%",6.34%
same,"viability at 25 h, 0.5 weight %","[2]; pH 7.2, CBD 0.5 weight % in mixture with NeutraZen 0.025%",6.95%
same,"viability at 25 h, 0.5 weight %","[2]; pH 7.2, CBD 0.5 weight % in mixture with NeutraZen 0.05%",7.76%
same,"viability at 25 h, 0.5 weight %","[2]; pH 7.2, CBD 0.5 weight % in mixture with NeutraZen 0.1%",8.56%
same,"viability at 25 h, 1 weight %","[2]; pH 7.2, CBD 1 weight % in mixture with NeutraZen 0.01%",5.66%
same,"viability at 25 h, 1 weight %","[2]; pH 7.2, CBD 1 weight % in mixture with NeutraZen 0.025%",5.19%
same,"viability at 25 h, 1 weight %","[2]; pH 7.2, CBD 1 weight % in mixture with NeutraZen 0.05%",7.74%
same,"viability at 25 h, 1 weight %","[2]; pH 7.2, CBD 1 weight % in mixture with NeutraZen 0.1%",8.58%
same,"viability at 25 h, 2.5 weight %","[2]; pH 7.2, CBD 2.5 weight % in mixture with NeutraZen 0.01%",7.21%
same,"viability at 25 h, 2.5 weight %","[2]; pH 7.2, CBD 2.5 weight % in mixture with NeutraZen 0.025%",4.12%
same,"viability at 25 h, 2.5 weight %","[2]; pH 7.2, CBD 2.5 weight % in mixture with NeutraZen 0.05%",8.14%
same,"viability at 25 h, 2.5 weight %","[2]; pH 7.2, CBD 2.5 weight % in mixture with NeutraZen 0.1%",8.93%
same,"viability at 25 h, 0.01 weight %","[2]; pH 7.2, sample alone at 0.01 weight %",99.4%
same,"viability at 25 h, 0.025 weight %","[2]; pH 7.2, sample alone at 0.025 weight %",98.3%
same,"viability at 25 h, 0.05 weight %","[2]; pH 7.2, sample alone at 0.05 weight %",97.9%
same,"viability at 25 h, 0.1 weight %","[2]; pH 7.2, sample alone at 0.1 weight %",53.1%
same,"viability at 25 h, 0.25 weight %","[2]; pH 7.2, sample alone at 0.25 weight %",8.24%
same,"viability at 25 h, 0.5 weight %","[2]; pH 7.2, sample alone at 0.5 weight %",4.73%
same,"viability at 25 h, 1 weight %","[2]; pH 7.2, sample alone at 1 weight %",2.9%
